“And” between values parts separate entries of the source, which are not always exact repeats. Equal entries are not always repeated. ± gives the expanded uncertainty stated by the source.
Conditions: Gas

O=C(C(F)(F)C(F)(F)F)C(F)(C(F)(F)F)C(F)(F)F [dodecafluoro-2-methylpentan-3-one]
Conditions	thermal conductivity
453.04 K, 2349 kPa, transient hot wire	0.03749 ± 0.0023 W/m/K
453.05 K, 2432 kPa, transient hot wire	0.03632 ± 0.00086 W/m/K
453.06 K, 2213 kPa, transient hot wire	0.03787 ± 0.0023 W/m/K
453.06 K, 2283 kPa, transient hot wire	0.039 ± 0.0024 W/m/K
453.07 K, 2432 kPa, transient hot wire	0.03565 ± 0.00085 W/m/K
453.08 K, 2213 kPa, transient hot wire	0.03857 ± 0.0024 W/m/K and 0.03787 ± 0.0023 W/m/K
453.09 K, 2350 kPa, transient hot wire	0.03794 ± 0.0023 W/m/K and 0.03775 ± 0.0023 W/m/K
453.11 K, 2432 kPa, transient hot wire	0.03612 ± 0.00087 W/m/K and 0.03616 ± 0.00087 W/m/K
453.11 K, 2570 kPa, transient hot wire	0.03577 ± 0.00085 W/m/K and 0.03583 ± 0.00085 W/m/K
453.11 K, 2808 kPa, transient hot wire	0.03624 ± 0.00086 W/m/K and 0.03614 ± 0.00086 W/m/K
453.14 K, 2350 kPa, transient hot wire	0.03841 ± 0.0024 W/m/K and 0.03851 ± 0.0024 W/m/K
453.15 K, 2570 kPa, transient hot wire	0.0359 ± 0.00085 W/m/K
453.16 K, 2433 kPa, transient hot wire	0.03632 ± 0.00087 W/m/K
453.17 K, 2136 kPa, transient hot wire	0.03394 ± 0.0021 W/m/K and 0.03367 ± 0.0021 W/m/K
453.17 K, 2432 kPa, transient hot wire	0.03641 ± 0.00086 W/m/K
453.17 K, 2808 kPa, transient hot wire	0.03589 ± 0.00085 W/m/K
453.19 K, 5686 kPa, transient hot wire	0.04064 ± 0.00096 W/m/K
453.21 K, 2136 kPa, transient hot wire	0.03328 ± 0.0021 W/m/K
453.21 K, 2570 kPa, transient hot wire	0.03619 ± 0.00086 W/m/K
453.21 K, 3282 kPa, transient hot wire	0.03735 ± 0.00089 W/m/K
453.21 K, 3283 kPa, transient hot wire	0.03693 ± 0.00088 W/m/K
453.22 K, 2136 kPa, transient hot wire	0.03435 ± 0.0021 W/m/K
453.22 K, 2432 kPa, transient hot wire	0.03662 ± 0.00087 W/m/K
453.22 K, 2570 kPa, transient hot wire	0.03586 ± 0.00085 W/m/K
453.22 K, 2810 kPa, transient hot wire	0.03611 ± 0.00086 W/m/K
453.23 K, 2433 kPa, transient hot wire	0.03706 ± 0.00088 W/m/K
453.23 K, 2810 kPa, transient hot wire	0.03619 ± 0.00086 W/m/K
453.23 K, 8482 kPa, transient hot wire	0.04362 ± 0.001 W/m/K
453.24 K, 8482 kPa, transient hot wire	0.04354 ± 0.001 W/m/K
453.26 K, 5649 kPa, transient hot wire	0.04056 ± 0.00096 W/m/K
453.27 K, 3283 kPa, transient hot wire	0.03745 ± 0.00089 W/m/K
453.27 K, 5649 kPa, transient hot wire	0.04057 ± 0.00096 W/m/K
453.28 K, 2570 kPa, transient hot wire	0.03618 ± 0.00086 W/m/K
453.29 K, 2570 kPa, transient hot wire	0.03626 ± 0.00086 W/m/K
453.29 K, 2810 kPa, transient hot wire	0.03632 ± 0.00086 W/m/K
453.29 K, 4172 kPa, transient hot wire	0.03871 ± 0.00092 W/m/K
453.29 K, 4174 kPa, transient hot wire	0.03872 ± 0.00092 W/m/K
453.3 K, 2810 kPa, transient hot wire	0.03661 ± 0.00087 W/m/K
453.33 K, 2570 kPa, transient hot wire	0.03666 ± 0.00088 W/m/K
453.33 K, 3284 kPa, transient hot wire	0.03713 ± 0.00088 W/m/K
453.34 K, 1996 kPa, transient hot wire	0.03032 ± 0.0019 W/m/K
453.34 K, 3284 kPa, transient hot wire	0.03709 ± 0.00088 W/m/K
453.34 K, 5678 kPa, transient hot wire	0.04058 ± 0.00096 W/m/K
453.34 K, 5680 kPa, transient hot wire	0.0407 ± 0.00097 W/m/K
453.36 K, 1997 kPa, transient hot wire	0.02939 ± 0.0018 W/m/K
453.36 K, 2570 kPa, transient hot wire	0.03639 ± 0.00087 W/m/K
453.36 K, 2811 kPa, transient hot wire	0.03631 ± 0.00086 W/m/K
453.37 K, 8482 kPa, transient hot wire	0.04354 ± 0.001 W/m/K
453.38 K, 8480 kPa, transient hot wire	0.0435 ± 0.001 W/m/K
453.39 K, 4177 kPa, transient hot wire	0.03877 ± 0.00092 W/m/K
453.4 K, 3286 kPa, transient hot wire	0.03741 ± 0.00089 W/m/K
453.4 K, 5646 kPa, transient hot wire	0.04064 ± 0.00096 W/m/K
453.4 K, 13124 kPa, transient hot wire	0.04703 ± 0.0011 W/m/K and 0.04697 ± 0.0011 W/m/K
453.41 K, 3285 kPa, transient hot wire	0.03741 ± 0.00089 W/m/K
453.41 K, 5645 kPa, transient hot wire	0.04067 ± 0.00096 W/m/K
453.42 K, 1998 kPa, transient hot wire	0.02991 ± 0.0018 W/m/K and 0.02978 ± 0.0018 W/m/K
453.46 K, 20262 kPa, transient hot wire	0.05129 ± 0.0012 W/m/K
453.48 K, 3286 kPa, transient hot wire	0.03719 ± 0.00088 W/m/K
453.48 K, 5676 kPa, transient hot wire	0.04078 ± 0.00097 W/m/K
453.48 K, 20262 kPa, transient hot wire	0.05134 ± 0.0012 W/m/K
453.49 K, 4182 kPa, transient hot wire	0.03866 ± 0.00092 W/m/K
453.49 K, 5674 kPa, transient hot wire	0.04064 ± 0.00096 W/m/K
453.49 K, 8479 kPa, transient hot wire	0.04353 ± 0.001 W/m/K
453.5 K, 4184 kPa, transient hot wire	0.03869 ± 0.00092 W/m/K
453.5 K, 31253 kPa, transient hot wire	0.05652 ± 0.0014 W/m/K
453.51 K, 8480 kPa, transient hot wire	0.04354 ± 0.001 W/m/K
453.51 K, 31255 kPa, transient hot wire	0.05656 ± 0.0014 W/m/K
453.52 K, 1999 kPa, transient hot wire	0.03046 ± 0.0019 W/m/K
453.52 K, 13123 kPa, transient hot wire	0.04703 ± 0.0011 W/m/K
453.53 K, 13124 kPa, transient hot wire	0.04696 ± 0.0011 W/m/K
453.54 K, 5643 kPa, transient hot wire	0.04051 ± 0.00096 W/m/K
453.55 K, 47061 kPa, transient hot wire	0.06271 ± 0.0016 W/m/K
453.56 K, 1718 kPa, transient hot wire	0.02564 ± 0.0016 W/m/K
453.58 K, 1718 kPa, transient hot wire	0.02573 ± 0.0016 W/m/K
453.6 K, 4188 kPa, transient hot wire	0.03889 ± 0.00092 W/m/K
453.6 K, 46969 kPa, transient hot wire	0.06282 ± 0.0016 W/m/K
453.6 K, 46979 kPa, transient hot wire	0.06275 ± 0.0016 W/m/K
453.62 K, 4187 kPa, transient hot wire	0.03872 ± 0.00092 W/m/K
453.62 K, 20261 kPa, transient hot wire	0.05127 ± 0.0012 W/m/K
453.62 K, 20264 kPa, transient hot wire	0.05121 ± 0.0012 W/m/K
453.63 K, 5670 kPa, transient hot wire	0.04057 ± 0.00096 W/m/K
453.63 K, 5671 kPa, transient hot wire	0.04054 ± 0.00096 W/m/K
453.63 K, 31252 kPa, transient hot wire	0.05654 ± 0.0014 W/m/K
453.64 K, 526 kPa, hot wire	0.02431 ± 0.0011 W/m/K

Reference: the NIST ThermoML archive (doi:10.1021/acs.jced.8b00132)
